**Q.** With CCOC(=O)Cc1nc(-c2cccc(C)c2)c(-c2ccnc(N)c2)s1 [Example Compound 18-5, Ethyl [5-(2-amino-4-pyridyl)-4-(3-methylphenyl)-1,3-thiazol-2-yl]acetate] as the compound, how does the melting point read?
**A.** Its melting point is 128 to 129 °C.

**Q.** For Cc1cccc(-c2nc(-c3ccc(S(C)(=O)=O)cc3)sc2-c2ccnc(NC3CCCC3)c2)c1 [Example Compound 36-7, N-cyclopentyl-4-[4-(3-methylphenyl)-2-(4-methylsulfonylphenyl)-1,3-thiazol-5-yl]-2-pyridylamine], which melting point is on record?
**A.** The melting point was 154 to 156 °C.

**Q.** Which melting point does the source give for Cc1cc(C)cc(-c2nc(NC(=O)c3cccnc3)sc2-c2ccnc(C)c2)c1 [Example Compound 42-1, N-[4-(3,5-dimethylphenyl)-5-(2-methyl-4-pyridyl)-1,3-thiazol-2-yl]nicotinamide] here?
**A.** The melting point was 203 to 206 °C.

**Q.** Which melting point does the source give for CCc1nc(-c2cccc(C)c2)c(-c2ccnc(NC(=O)C3CCCC3)c2)s1 [Example Compound 29-1, N-[4-[2-ethyl-4-(3-methylphenyl)-1,3-thiazol-5-yl]-2-pyridyl]cyclopentanecarboxamide] here?
**A.** Its melting point is 123 to 125 °C.

**Q.** Which melting point does the source give for CCc1nc(-c2cccc(Cl)c2)c(-c2ccnc(NC3CCCCC3)c2)s1 [Example Compound 36-10, 4-[4-(3-chlorophenyl)-2-ethyl-1,3-thiazol-5-yl]-N-cyclohexyl-2-pyridylamine] here?
**A.** Its melting point is 106 to 107 °C.

**Q.** For CCc1nc(-c2cccc(F)c2)c(-c2ccnc(N)c2)s1 [Example Compound 20-6, 4-[2-ethyl-4-(3-fluorophenyl)-1,3-thiazol-5-yl]-2-pyridylamine], which melting point is on record?
**A.** The melting point was 153 to 154 °C.

**Q.** For CCc1nc(-c2cccc(C(F)(F)F)c2)c(-c2ccnc(NC(C)=O)c2)s1 [Example 82-3, N-[4-[2-ethyl-4-(3-trifluoromethylphenyl)-1,3-thiazol-5-yl]-2-pyridyl]acetamide], which melting point is on record?
**A.** Its melting point is 146 to 147 °C.

**Q.** Which melting point does the source give for Cc1cccc(-c2ncsc2-c2ccnc(N)c2)c1 [Example Compound 27-1, 4-[4-(3-methylphenyl)-1,3-thiazol-5-yl]-2-pyridylamine] here?
**A.** The melting point was 91 to 92 °C.

**Q.** Which melting point does the source give for CCC(=O)Nc1cc(-c2sc(-c3ccc(SC)cc3)nc2-c2cccc(C)c2)ccn1 [Example 84-9, N-[4-[4-(3-methylphenyl)-2-[4-(methylthio)phenyl]-1,3-thiazol-5-yl]-2-pyridyl]propionamide] here?
**A.** Its melting point is 171 to 172 °C.

**Q.** For Cc1cccc(-c2nc(NC(=O)c3ccc(C)nc3)sc2-c2ccnc(C)c2)c1 [Example Compound 45, 6-methyl-N-[4-(3-methylphenyl)-5-(2-methyl-4-pyridyl)-1,3-thiazol-2-yl]nicotinamide], which melting point is on record?
**A.** Its melting point is 233 to 234 °C.

**Q.** Which melting point does the source give for CCCc1cccc(-c2nc(CC)sc2-c2ccnc(N)c2)c1 [Example Compound 20-11, 4-[2-ethyl-4-(3-propylphenyl)-1,3-thiazol-5-yl]-2-pyridylamine] here?
**A.** The melting point was 72 to 74 °C.

**Q.** Which melting point does the source give for CCC(=O)Nc1cc(-c2sc(C(C)OC(=O)c3ccccc3)nc2-c2cccc(Cl)c2)ccn1 (stereo not shown) [Example 102-6, 1-[4-(3-chlorophenyl)-5-(2-propionylamino-4-pyridyl)-1,3-thiazol-2-yl]ethyl benzoate] here?
**A.** The melting point was 124 to 127 °C.

**Q.** With CCc1nc(-c2cccc(C)c2)c(-c2ccnc(NCC3CCCC3)c2)s1 [Example Compound 32, N-(cyclopentylmethyl)-4-[2-ethyl-4-(3-methylphenyl)-1,3-thiazol-5-yl]-2-pyridylamine] as the compound, how does the melting point read?
**A.** Its melting point is 67 to 69 °C.

**Q.** With CCCCC(=O)Nc1cc(-c2sc(CC)nc2-c2cccc(Cl)c2)ccn1 [Example 88-1, N-[4-[4-(3-chlorophenyl)-2-ethyl-1,3-thiazol-5-yl]-2-pyridyl]valeramide] as the compound, how does the melting point read?
**A.** The melting point was 109 to 110 °C.

**Q.** With Cc1cccc(-c2nc(NC(=O)c3cccnc3)sc2-c2ccnc(NC3CCCC3)c2)c1 [Example Compound 42-4, N-[5-(2-cyclopentylamino-4-pyridyl)-4-(3-methylphenyl)-1,3-thiazol-2-yl]nicotinamide] as the compound, how does the melting point read?
**A.** Its melting point is 215 to 216 °C.

**Q.** Which melting point does the source give for CNc1nc(-c2cccc(C)c2)c(-c2ccnc(NC3CCCCC3)c2)s1 [Example Compound 36-2, N-methyl-[5-(2-cyclohexylamino-4-pyridyl)-4-(3-methylphenyl)-1,3-thiazol-2-yl]amine] here?
**A.** Its melting point is 211 to 212 °C.

**Q.** For Nc1nc(-c2ccc(F)cc2)c(-c2ccnc(F)c2)s1 [Example Compound 7-3, [4-(4-fluorophenyl)-5-(2-fluoro-4-pyridyl)-1,3-thiazol-2-yl]amine], which melting point is on record?
**A.** Its melting point is 243 to 245 °C.

**Q.** For CCOC(=O)Cc1nc(-c2cccc(Cl)c2)c(-c2ccnc(NC(C)=O)c2)s1 [Example 103-2, ethyl [5-(2-acetylamino-4-pyridyl)-4-(3-chlorophenyl)-1,3-thiazol-2-yl]acetate], which melting point is on record?
**A.** Its melting point is 99 to 100 °C.

**Q.** With CSc1ccc(-c2nc(-c3cccc(C)c3)c(-c3ccnc(F)c3)s2)cc1 [Example Compound 15, 5-(2-fluoro-4-pyridyl)-4-(3-methylphenyl)-2-[4-(methylthio)phenyl]-1,3-thiazole] as the compound, how does the melting point read?
**A.** Its melting point is 97 to 100 °C.

**Q.** For Cc1cccc(-c2nc(-c3ccc(S(C)(=O)=O)cc3)sc2-c2ccnc(F)c2)c1 [Example Compound 58-4, 5-(2-fluoro-4-pyridyl)-4-(3-methylphenyl)-2-(4-methylsulfonylphenyl)-1,3-thiazole], which melting point is on record?
**A.** The melting point was 195 to 199 °C.

**Q.** For CSCc1nc(-c2cccc(Cl)c2)c(-c2ccnc(N)c2)s1, which melting point is on record?
**A.** The melting point was 111 to 112 °C.

**Q.** For Cc1cccc(-c2nc(NC(=O)c3ccc(Cl)nc3)sc2-c2ccnc(NC3CCCCC3)c2)c1 [Example Compound 44-1, 6-chloro-N-[5-(2-cyclohexylamino-4-pyridyl)-4-(3-methylphenyl)-1,3-thiazol-2-yl]nicotinamide], which melting point is on record?
**A.** Its melting point is 255 to 256 °C.

**Q.** Which melting point does the source give for Cc1cccc(-c2nc(-c3ccc(S(C)(=O)=O)cc3)sc2-c2cc[n+]([O-])c(C)c2)c1 [Example Compound 68-1, 4-[4-(3-methylphenyl)-2-(4-methylsulfonylphenyl)-1,3-thiazol-5-yl]-2-methylpyridine N-oxide] here?
**A.** The melting point was 197 to 198 °C.

**Q.** For CCC(=O)Nc1cc(-c2sc(-c3ccc(SC)cc3)nc2-c2cccc(Cl)c2)ccn1 [Example Compound 30-11, N-[4-[4-(3-chlorophenyl)-2-[4-(methylthio)phenyl]-1,3-thiazol-5-yl]-2-pyridyl]propionamide], which melting point is on record?
**A.** The melting point was 187 to 188 °C.

**Q.** For CCC(=O)Nc1cc(-c2sc(CSC)nc2-c2cccc(Cl)c2)ccn1 [Example 102-3, N-[4-[4-(3-chlorophenyl)-2-(methylthio)methyl-1,3-thiazol-5-yl]-2-pyridyl]propionamide], which melting point is on record?
**A.** The melting point was 118 to 119 °C.

**Q.** Which melting point does the source give for CCC(=O)Nc1cc(-c2sc(-c3ccc(S(C)(=O)=O)cc3)nc2-c2cccc(C)c2)ccn1 [Example 98-2, N-[4-[4-(3-methylphenyl)-2-(4-methylsulfonylphenyl)-1,3-thiazol-5-yl]-2-pyridyl]propionamide] here?
**A.** The melting point was 238 to 239 °C.

**Q.** Which melting point does the source give for CSc1ccc(-c2nc(-c3ccc(F)cc3)c(-c3ccnc(C)c3)s2)cc1 [Example Compound 16-5, 4-(4-fluorophenyl)-5-(2-methyl-4-pyridyl)-2-[4-(methylthio)phenyl]-1,3-thiazole] here?
**A.** Its melting point is 99 to 100 °C.

**Q.** With CSCc1nc(-c2cccc(C)c2)c(-c2ccnc(N)c2)s1 [Example 113-1, 4-[4-(3-methylphenyl)-2-(methylthio)methyl-1,3-thiazol-5-yl]-2-pyridylamine] as the compound, how does the melting point read?
**A.** Its melting point is 113 to 114 °C.

Source: patent US7495018B2, “Substituted 1,3-thiazole compounds, their production and use” (Takeda Pharmaceutical Company Limited, priority 2000, dated 2009)
